Data on seven compounds can be found in PubChem BioAssay (NCI).

Test systems include MCF7 breast; ACHN renal; NCI-H522 lung; U251 CNS; TK-10 renal; SN12C renal; A549 NSCLC; SK-MEL-28 melanoma; LOX IMVI melanoma; HCT-15 colon; SNB-19 CNS; EKVX NSCLC; HL-60(TB) leukemia; OVCAR-3 ovarian; HT29 colon; COLO 205 colon; NCI-H23 lung; T-47D breast; A498 renal; BT-549 breast.
Common to all, as to test: DTP human tumour cell line panel, 48 h

The TGI is the concentration giving total growth inhibition. High values mean lower sensitivity of the cells, low ones greater sensitivity of the cells.

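48-hour exposure; five concentrations; linearly interpolated endpoints. TGI: total growth inhibition.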

In the case of `CCCCCCCCCCCCCC[S+](C)C`, the TGI in the assay with MCF7 breast was 4.67 µM; in the assay with ACHN renal it was above 10 µM; in the assay with NCI-H522 lung it was 4.33 µM; in the assay on U251 CNS, 2.28 µM; in the assay on TK-10 renal it was 3.75 µM; with SN12C renal, 3.24 µM. Further, the TGI with A549 NSCLC was 4.14 µM; in the assay on SK-MEL-28 melanoma, 8.5 µM; in the assay on LOX IMVI melanoma, 4.34 µM; in the assay on HCT-15 colon, above 10 µM; in the assay with SNB-19 CNS it was 2.84 µM; in the assay on EKVX NSCLC, 9.87 µM. The TGI in the assay on HL-60(TB) leukemia is 2.47 µM; with OVCAR-3 ovarian it was 4.03 µM; in the assay on HT29 colon, 4.93 µM; in the assay with COLO 205 colon, 2.97 µM; in the assay on NCI-H23 lung, 4.09 µM; in the assay on T-47D breast, above 10 µM.

Turning to `N#CCCC1(CCC#N)CCCCCCCCC(CCC#N)(CCC#N)C(=O)C1=O`, the TGI with MCF7 breast is above 100 µM; in the assay on ACHN renal, above 100 µM; in the assay with NCI-H522 lung it was 88.2 µM; in the assay on U251 CNS, above 100 µM; in the assay with TK-10 renal it was above 100 µM; in the assay on SN12C renal, above 100 µM. Also, the concentration for total growth inhibition (TGI) in the assay with A549 NSCLC, in the assay with SK-MEL-28 melanoma, in the assay with LOX IMVI melanoma, with HCT-15 colon, in the assay with SNB-19 CNS and with EKVX NSCLC was above 100 µM in each case. The TGI with HL-60(TB) leukemia, in the assay on OVCAR-3 ovarian, with HT29 colon, with COLO 205 colon, in the assay on NCI-H23 lung and in the assay with T-47D breast was above 100 µM throughout.

Regarding `CCOC(=O)C1OC(C2(C)OC3(OC4(C=CC3O)OC(C(C)C(=O)C(C)C(O)C(C)CC(C)c3c(Cl)cc(C)c(O)c3C(=O)O)C(C)CC4C)C(C)C2OC)CC1O` (stereo not given), the TGI amounted to 23.1 µM in the assay on MCF7 breast; 6.78 µM in the assay on ACHN renal; 0.434 µM in the assay with NCI-H522 lung; 4.24 µM in the assay on U251 CNS; 7.81 µM in the assay on TK-10 renal; 2.51 µM in the assay on A498 renal. In addition, the TGI in the assay on SN12C renal is 4.84 µM; with A549 NSCLC, 7.27 µM; with SK-MEL-28 melanoma it was 1.02 µM; in the assay with LOX IMVI melanoma, 14.2 µM; with BT-549 breast, 17.2 µM; in the assay with HCT-15 colon, above 20.2 µM. Moreover, the TGI in the assay with EKVX NSCLC amounted to 5.02 µM; in the assay on HL-60(TB) leukemia, 4.66 µM; in the assay on OVCAR-3 ovarian it was 3.9 µM; in the assay with HT29 colon, 3.57 µM; in the assay with COLO 205 colon, 2.08 µM; with NCI-H23 lung it was 5.77 µM.

Turning to `COc1ccc(/C=c2\sc3n(c2=O)C(N)=C(C#N)C(c2ccc(OC)cc2)C=3c2nc3ccccc3[nH]2)cc1` (stereo not given), the concentration for total growth inhibition (TGI) in the assay with ACHN renal was above 100 µM; with NCI-H522 lung it was above 100 µM; in the assay on U251 CNS, 34.4 µM; with TK-10 renal, 66.5 µM; in the assay on A498 renal, above 100 µM; in the assay on SN12C renal it was above 100 µM. Also, the total growth inhibition concentration (TGI) in the assay on A549 NSCLC is above 100 µM; with SK-MEL-28 melanoma it was 56.1 µM; in the assay on LOX IMVI melanoma, 35.2 µM; in the assay on HCT-15 colon it was 59.2 µM; in the assay with SNB-19 CNS, above 100 µM; in the assay on EKVX NSCLC it was 56.2 µM. Besides, the TGI in the assay with HL-60(TB) leukemia was above 100 µM; in the assay with OVCAR-3 ovarian, 44.3 µM; in the assay with COLO 205 colon, above 100 µM; with NCI-H23 lung it was 20.2 µM.

In the case of `CCOC(=O)C1=C(C)N(c2ccc(C)cc2)C2=C(C(=O)N(c3ccccc3)C2c2ccccc2)C1c1ccccc1` (stereo not given), the TGI in the assay with ACHN renal, in the assay on U251 CNS, in the assay on TK-10 renal, in the assay with A498 renal, in the assay with SN12C renal and in the assay on A549 NSCLC was above 25 µM each time. Further, the TGI in the assay with SK-MEL-28 melanoma, with LOX IMVI melanoma, in the assay with HCT-15 colon, in the assay on SNB-19 CNS, in the assay with EKVX NSCLC and in the assay on HL-60(TB) leukemia was above 25 µM throughout. Besides, the TGI in the assay on OVCAR-3 ovarian, in the assay on HT29 colon, in the assay with COLO 205 colon and in the assay with NCI-H23 lung was above 25 µM each time.

On to `CN1C(=O)[C@@H]2[C@@H]3c4ccccc4N(S(=O)(=O)C(F)(F)F)[C@@H]3c3[nH]c4ccccc4c3[C@@H]2C1=O`, for which the TGI in the assay on MCF7 breast, with ACHN renal, in the assay with U251 CNS, with TK-10 renal, in the assay with A498 renal and in the assay with SN12C renal was above 100 µM in each case. Besides, the TGI in the assay on A549 NSCLC, in the assay on SK-MEL-28 melanoma, in the assay with LOX IMVI melanoma, with BT-549 breast, in the assay with HCT-15 colon and with SNB-19 CNS was above 100 µM throughout. Moreover, the TGI in the assay on EKVX NSCLC, in the assay with OVCAR-3 ovarian, in the assay with HT29 colon, in the assay with COLO 205 colon and with NCI-H23 lung was above 100 µM throughout.

As for `CCC1CN2CCc3c([nH]c4ccccc34)C2C[C@@H]1CC(=O)N(C)C` (stereo not given in full), the total growth inhibition concentration (TGI) in the assay with ACHN renal, in the assay on NCI-H522 lung, in the assay with U251 CNS, in the assay on TK-10 renal, in the assay on A498 renal and with SN12C renal was above 100 µM throughout. Further, the TGI in the assay with A549 NSCLC, with SK-MEL-28 melanoma, with LOX IMVI melanoma, with HCT-15 colon, in the assay with SNB-19 CNS and with EKVX NSCLC was above 100 µM in each case. Besides, the TGI in the assay with HL-60(TB) leukemia, in the assay on OVCAR-3 ovarian, in the assay with HT29 colon, in the assay with COLO 205 colon and in the assay with NCI-H23 lung was above 100 µM each time.
